Experimental data from patent publication US12653192B2, “Pesticidal compositions” (SYNGENTA CROP PROTECTION AG, priority 2021, dated 2026).
Like-named read-outs stand apart in the source and are kept apart here.

Assay type: physicochemical
Method: The percentage amount of spiropidion remaining at each time interval during the high temperature storage testing was compared to an identical sample stored at −18° C. (100%=amount of spiropidion in the −18° C. sample at respective time interval).

CCOC(=O)OC1=C(c2c(C)cc(Cl)cc2C)C(=O)N(C)C12CCN(OC)CC2 [Spiropidion, [3-(4-chloro-2,6-dimethyl-phenyl)-8-methoxy-1-methyl-2-oxo-1,8-diazaspiro[4.5]dec-3-en-4-yl]ethyl carbonate]
chemical degradation of the active ingredient spiropidion: only minimal chemical degradation | % Spiropidion remaining (1 month): 99% | % Spiropidion remaining (12 months): 98%
